Data from publication PMC10285738, “Identification of macrocyclic peptides which activate bacterial cylindrical proteases” (RSC Medicinal Chemistry, 2023).
“Also recorded” adds a separate entry of the source.

Key:
[1] = FITC-casein fluorescence with/without Ec.ClpP (false-positive control); conditions: 200 µM, with vs without Ec.ClpP, 24 h at 37 °C, Fig. S2
Method: (§1) Walther et al. Supporting Information
Protein purification and isolation […]
expressed in E. coli C41 (DE3) cells. A single colony was incubated overnight in 2xYT media containing ampicillin (0.1 mg/mL) at 37 °C. Subsequently 10 mL of the overnight inoculum was […]
applied to a Ni-NTA affinity column (GE Healthcare). The column was washed with an increasing […]
Protein containing fraction
10 mM MgCl2, glycerol 10 % (v/v)). The pure protein sample was obtained after size exclusion […]
0.5 mM EDTA, 100 mM KCl, 10 % glycerol).
After 18 hours of growth at 25 °C, cells […]
mM Tris-HCl, 1 mM EDTA, pH 8).
Here, the protein was eluted with an isocratic gradient of buffer containing 50 mM biotin. Protein was concentrated and buffer […]
stocks were stored in storage buffer at -20 °C. For long term storage, samples were stored at -80 […]
FITC casein degradation screen
(§2) All concentrations are given as final concentrations. Ligands were incubated at 200 µM in the […]
samples is subtracted from all samples.

[2] = biological target: T1, Sa.ClpP (Staphylococcus aureus, UniProt Q2G036); assay: beta-casein degradation by Sa.ClpP, SDS-PAGE; format: biochemical, S. aureus; conditions: ligands at 200 µM, ADEP2 at 10 µM, ClpP 1.0 µM, 24 h at 37 °C, Fig. 4A
T1 construct: Strep-tag (C); made in house; host or cells: E. coli SG1146a (lacks endogenous ClpP)
Method: (§3) Beta-casein degradation by Ec.ClpP or Sa.ClpP
(§4) All concentrations are given as final concentrations. Ligands were incubated at 200 µM in […]
(§5) Aliquots were drawn at the
(§6) Gels were run at constant voltage […]
(§7) concentration was 200 µM. The results from densitometric analysis were plotted in Graphpad […]
(§8) Data is represented as mean ± SD of three independent experiments. […]

[3] = biological target: T1, Sa.ClpP; assay: Thermal shift assay (differential scanning fluorimetry); format: binding; conditions: S. aureus ClpP 5 µM, ligand 200 µM, HEPES 100 mM pH 7, NaCl 150 mM, sypro orange 5x, 30-90 °C in 0.5 °C increments; mean ± SD of duplicates of at least two independent experiments
From the text: All concentrations are given as final concentrations. […]
real-time qPCR (Bio-Rad CF X96).
SD of duplicates of at least two independent experiments.
equilibrated Superdex 200 Increase 10/300 GL column (Cytiva). […]

[4] = biological target: T1, Sa.ClpP; assay: Dose-response of beta-casein degradation by Sa.ClpP; format: biochemical, S. aureus; conditions: two-fold dilution series in DMSO, highest concentration 200 µM, densitometry, non-linear fit; three independent experiments; Fig. 4B; read-out: EC50 (effective dose), Sa.ClpP-dependent digestion of beta-casein
Method: as §3, §4, §5, §6, §7, §8

[5] = system: Ec.ClpP; conditions: 200 µM ligand, ClpP 1.0 µM, 24 h at 37 °C, SDS-PAGE densitometry, at least three independent experiments, Fig. 3D
Method: presence of E. coli ClpP or S. aureus ClpP (1.0 µM), and bovine beta-casein (Sigma-Aldrich –
catalogue number C6905, 5.0 µM or 3 µM) in Tris HCl buffer (100 mM, pH 7.6) with KCl (100 mM)
or HEPES buffer (100 mM, pH 7) with NaCl (150 mM) at 37 °C. Aliquots were drawn at the
indicated time points, quenched with SDS-loading buffer and heated to 90 °C for 5 min. Beta-
casein digestion was visualized by non-reducing Tris-glycine SDS-PAGE with 12 % acrylamide
and 4 % stacking gel or reducing Bolt 4-12% Bis-Tris Plus gels. Gels were run at constant voltage
(160-200 V) for 60 min and visualized with Coomassie brilliant blue dye. Protein bands were
quantified by densitometry using ImageJ from at least three independent experiments.
A two-fold dilution series in DMSO was performed to keep DMSO content identical. Highest
Prism and a non-linear fit was applied to estimate the EC50. Data is represented as mean ± SD of three independent experiments.

[6] = biological target: T1, Sa.ClpP; assay: FtsZ degradation by Sa.ClpP, SDS-PAGE; format: biochemical, S. aureus; conditions: 200 µM, ADEP2 at 10 µM, Sa. FtsZ 4.0 µM, 24 h, SDS-PAGE densitometry, at least three independent experiments, Fig. 4D
From the text: Lastly, we set out to answer to what extent ADEP and other allosteric activators of ClpP resemble the activation process of ClpX. To this end, we set up a biochemical assay and monitored the digestion of FtsZ, an essential protein for cell division, which is the major determinant for the filamentation phenotype induced by ADEP-activated ClpP.[17] […] We performed docking studies of the identified macrocycles into the same pocket where ADEP binds (see ESI ^† for full details).
as §1
FITC casein degradation rate
as §2
The linear part of the fluorescence curve was used to determine the relative degradation rate. Data analysis was performed by OriginPro […]
as §3, §4, §5, §6, §7
Data is represented as mean ± SD of three independent experiments.
FtsZ degradation by Sa.ClpP […]
at a final concentration of 4.0 µM. […]
casein degradation assay. […]
SD of duplicates of at least two independent experiments. […]
equilibrated Superdex 200 Increase 10/300 GL column (Cytiva). Stabilization of Sa.ClpP in […]

[7] = system: Ec.ClpP; conditions: 200 µM peptide, E. coli ClpP 0.5 µM, FITC-casein 1.8 µM + beta-bovine casein 4.8 µM, Tris HCl 100 mM pH 7.6, KCl 100 mM, 24 h at 37 °C, exc. 483 nm, em 530 nm; duplicates of at least two independent experiments; vs DMSO
Method: Next, we screened for enzymatic activation of ClpP to quickly assess the chemical library for binding and understand whether IGF-bearing macrocyclic peptides could modulate ClpP enzymatic function. Modulation of ClpP was assessed using a biochemical assay monitoring the enzymatic function of the protease based on previously reported successes for the identification of allosteric activators of ClpP.[9] […] FITC-casein, a protein labeled with fluorescein to the extent of self-quenching, is a suitable substrate for this assay, as it can only enter the proteolytic core upon apical pore opening and is indirectly a measure for the conformational state of the protease.[2,10] Enzymatic degradation of FITC-casein alleviates self-quenching giving rise to an increased fluorescence intensity and an easy readout for our purpose to identify any ligand that positively modulates the enzymatic activity of recombinant E. coli ClpP (Ec.ClpP).
Ec.ClpP was incubated for 24 h at 37 °C in the presence of a peptide library, or vehicle (DMSO) and fluorescence intensity was measured thereafter (Fig. 2C and S1 ^†). […] This was reproducibly confirmed in three independent experiments (varying the batch of enzyme).

[8] = system: ClpP; conditions: in words, through another mechanism; cited from earlier work
Method: Modulation of ClpP was assessed using a biochemical assay monitoring the enzymatic function of the protease based on previously reported successes for the identification of allosteric activators of ClpP.[9]

[9] = biological target: T1, Sa.ClpP; assay: Gel filtration (SEC) of ClpP oligomeric state; design: species or system S. aureus; conditions: Sa.ClpP 1 mg/mL, ligand 200 µM, destabilizing buffer Tris-HCl 100 mM pH 7.6, 100 mM KCl, overnight at 32 °C; Superdex 200

T1 sequence (Q2G036 whole entry): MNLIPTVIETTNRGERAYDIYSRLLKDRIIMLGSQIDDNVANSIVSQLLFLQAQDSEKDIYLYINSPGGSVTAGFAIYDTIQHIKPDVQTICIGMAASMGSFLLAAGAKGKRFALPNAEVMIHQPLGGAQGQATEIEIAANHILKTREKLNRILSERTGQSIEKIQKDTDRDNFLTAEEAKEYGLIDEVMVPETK

SMILES	fluorescence signal in presence or absence of Ec.ClpP (false-positive check) [1]	activation of Sa.ClpP (beta-casein digestion) [2]	apparent increase in melting temperature of Sa.ClpP [3]	EC50 [4]	Ec.ClpP-dependent beta-casein digestion [5]	Sa.ClpP-dependent Sa.FtsZ digestion [6]	increase in fluorescence intensity / enzymatic activation of Ec.ClpP (FITC-casein) [7]	effect on enzymatic function of ClpP homologues [8]	stabilization/retention of tetradecameric Sa.ClpP [9]
CC[C@H](C)[C@@H]1NC(=O)CNC(=O)[C@@H](NC(C)=O)CSCC(=O)CSC[C@@H](C(N)=O)NC(=O)CNC(=O)[C@H](Cc2ccccc2)NC(=O)CNC1=O [P4-B]	did not exhibit this behaviour	able to activate the enzymatic function of Sa.ClpP	0.6 ± 0.2 °C	> 100 µM	control of Ec.ClpP function was confirmed by SDS-PAGE analysis of beta-casein digestion	also induced the digestion of FtsZ, yet less efficiently	significant increase of fluorescence intensity over the DMSO-treated sample	–	–
CC(C)C[C@H](NC(=O)[C@H](Cc1ccccc1)NC(=O)c1cnccn1)B(O)O [bortezomib]	–	–	–	–	–	–	–	able to increase enzymatic function of ClpP homologues	–
CCCC/C=C/C(=O)N[C@@H](Cc1cc(F)cc(F)c1)C(=O)OC [compound 2, reference compound]	–	–	–	–	–	activated Sa.ClpP, and FtsZ was digested	–	–	able to retain the tetradecamer in Tris-HCl; also recorded: able to rescue and stabilize the tetradecameric structure of Sa.ClpP
